Test results from patent US12281058B2, “Manganese catalysts and their use in hydrogenation of ketones” (priority 2019, dated 2025).
Like-named read-outs stand apart in the source and are kept apart here.

What was measured:
[1] = Hydrogenation of acetophenone, microwave vials in autoclave (vial method); conditions: for e.e.: 50 bar H2, chiral HPLC, (S)
[2] = for Conversion (%) / TOF: acetophenone, gas uptake, 20 bar H2, 50 °C; for TOF: at 20% conversion
Experimental: The vessel was sealed and pressurised with hydrogen gas (5 bar) and vented. This was repeated twice. The degassed ethanol solution was added via an injection port and the vessel sealed and pressurised with hydrogen gas (20 bar) and vented. This was repeated twice. The pressure was set to 2 bar and the mixture heated to 50° C. at which time the pressure was increased to 20 bar and the experiment started. Gas uptake was monitored by reduction of the pressure in the burette. […] The vessel was cooled to room temperature, vented and the content concentrated to dryness and analysed by ^1H-NMR to confirm full conversion. The uptake curve was converted to conversion by dividing the gas uptake at a time-point by total uptake and multiplied by 100 to get percentage conversion. Substrate and product concentrations could be calculated, from which the turnover frequency (TOF) could be calculated. The TOF was reported at 20% conversion to minimise temperature influence of the vessel setup.

[3] = Ketone hydrogenation, general procedure (vial); conditions: 4′-chloropropiophenone, 0.1 mol % catalyst, 50 °C, 16 h
[4] = Ketone hydrogenation, general procedure (vial); conditions: 2′-methoxyacetophenone; 0.1 mol % catalyst, 50 °C, 16 h, 50 bar H2, K2CO3, ethanol
[5] = Ketone hydrogenation, general procedure (vial); conditions: 2′-fluoroacetophenone; 0.1 mol % catalyst, 50 °C, 16 h, 50 bar H2, K2CO3, ethanol
[6] = Ketone hydrogenation, general procedure (vial); conditions: cyclohexylphenylketone; 0.1 mol % catalyst, 50 °C, 16 h, 50 bar H2, K2CO3, ethanol
[7] = Ketone hydrogenation, general procedure (vial); conditions: 2′,6′-dichloro-3′-fluoroacetophenone, 0.1 mol % catalyst, 50 °C, 16 h
[8] = Ketone hydrogenation, general procedure (vial); conditions: 2′-chloroacetophenone; 0.1 mol % catalyst, 50 °C, 16 h, 50 bar H2, K2CO3, ethanol
[9] = Ketone hydrogenation, general procedure (vial); conditions: isobutyrophenone; 0.001 equiv. catalyst, 50 °C, 16 h, 50 bar H2; chiral HPLC, (S)
[10] = Ketone hydrogenation, general procedure (vial); conditions: propiophenone; 0.001 equiv. catalyst, 50 °C, 16 h, 50 bar H2, K2CO3, ethanol; chiral HPLC, (S)
[11] = Ketone hydrogenation, general procedure (vial); conditions: 4′-methoxypropiophenone, 0.001 equiv. catalyst, 50 °C, 16 h

Substance: [(Rc,Sp)—N-(4-(dimethylamino)pyridine-2-methyl)-1-(˜2-bis(4-methoxy-3,5-dimethylphenyl)phosphino)ferrocenylethylamine]-κN^1-κN^2-κ^P-tricarbonyl manganese (I) bromide [compound 6]
- Conversion ([1]; 0.01 mol % catalyst, 65 °C, 24 h, 50 bar H2): >99%
- e.e. ([1]; 0.01 mol % catalyst, 65 °C, 24 h): 57% (S)
- Conversion ([1]; 0.02 mol % catalyst, 60 °C, 16 h, 50 bar H2): >99%
- e.e. ([1]; 0.02 mol % catalyst, 60 °C, 16 h): 51% (S)
- Conversion ([1]; 0.1 mol % catalyst, 50 °C, 16 h, 50 bar H2, K2CO3, ethanol): >99%
- Conversion (%) ([1]; vial method, 0.1 mol % catalyst, 2 h, 50 bar H2): 56.5%
- TOF ([1]; vial method, 0.1 mol % catalyst, calculated after 2 h, 50 bar H2): 283 h⁻¹
- Conversion (%) ([2]; 0.05 mol % catalyst, 12 h): 100%
- TOF ([2]; 0.05 mol % catalyst): 237 h⁻¹
- Conversion (%) ([2]; 0.1 mol % catalyst, ethanol, run to completion): 100%
- TOF ([2]; 0.1 mol % catalyst): 230 h⁻¹
- turnover frequency (TOF) with 6 relative to 7 ([2]; hydrogenation of acetophenone, Table 2): at least 3.5 times
- Conversion ([3]; 50 bar H2, K2CO3, ethanol): >99%
- Conversion [4]: >99%
- Conversion [5]: >99%
- Conversion [6]: >99%
- Conversion ([7]; 50 bar H2, K2CO3, ethanol): >99%
- Conversion [8]: >99%

Substance: [(Rc,Sp)—N-2-picolynyl-1-(-2-bis(4-methoxy-3,5-dimethylphenyl)-phosphino)ferrocenylethylamine]-κN^1-κN^2-κ^P-tricarbonyl manganese (I) bromide [compound 2]
- ee [9]: 90%
- e.e. ([3]; 50 bar H2, chiral HPLC, (S)): 80%
- ee [10]: 76%
- e.e. ([7]; 50 bar H2, chiral HPLC, (S)): 82%
- conversion to product (NMR analysis) ([11]; 50 bar H2, K2CO3, ethanol): 96%
- ee ([11]; 50 bar H2, chiral HPLC, (S)): 70%
